Series [1] addresses T1, C-X-C chemokine receptor type 2 (Homo sapiens, UniProt P25025).
T1 sequence (P25025 whole entry): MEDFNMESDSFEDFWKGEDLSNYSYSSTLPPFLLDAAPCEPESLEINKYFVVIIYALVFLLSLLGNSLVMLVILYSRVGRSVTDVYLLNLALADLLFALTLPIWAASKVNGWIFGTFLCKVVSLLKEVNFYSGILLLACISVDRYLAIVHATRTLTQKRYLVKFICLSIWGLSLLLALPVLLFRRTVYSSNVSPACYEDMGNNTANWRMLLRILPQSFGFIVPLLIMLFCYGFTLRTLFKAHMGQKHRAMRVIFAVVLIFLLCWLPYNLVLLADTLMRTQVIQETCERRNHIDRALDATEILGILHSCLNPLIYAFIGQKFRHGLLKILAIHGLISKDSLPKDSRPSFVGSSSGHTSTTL
In kind it is cell membranes, Membrane. The note with it: cho-k1.

Series [2] concerns the target T2, Calcitonin receptor (Homo sapiens, UniProt P30988). Further: in other assays of this panel Not Active means under 50% inhibition at 10 µM.
T2 sequence (P30988 whole entry): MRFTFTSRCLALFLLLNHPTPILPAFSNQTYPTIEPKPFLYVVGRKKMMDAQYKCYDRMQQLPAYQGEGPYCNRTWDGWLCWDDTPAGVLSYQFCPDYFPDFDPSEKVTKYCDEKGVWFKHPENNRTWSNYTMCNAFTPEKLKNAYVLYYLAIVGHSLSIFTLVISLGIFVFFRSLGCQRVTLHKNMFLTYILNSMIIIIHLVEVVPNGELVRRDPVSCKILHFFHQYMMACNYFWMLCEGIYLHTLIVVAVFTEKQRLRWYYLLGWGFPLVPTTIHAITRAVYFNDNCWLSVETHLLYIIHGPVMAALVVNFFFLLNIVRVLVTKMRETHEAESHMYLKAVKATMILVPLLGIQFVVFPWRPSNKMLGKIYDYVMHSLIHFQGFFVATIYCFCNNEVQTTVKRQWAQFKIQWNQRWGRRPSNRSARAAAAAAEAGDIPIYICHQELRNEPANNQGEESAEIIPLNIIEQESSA
It is filed as cell membranes, Membrane. The note with it: t47d.

The nature of series [3]: DRUGMATRIX: Glutamate, NMDA, Agonism radioligand binding (ligand: [3H] CGP-39653). In kind it is cell membranes, Rattus norvegicus, Wistar, Cerebral cortex, Membrane. As to conditions: Not Active = under 50% inhibition at 10 µM.
In series [4] the target is Melanocortin receptor 5 (Homo sapiens, UniProt P33032). It is filed as cell membranes, HEK293, Membrane. Further: in other assays of this panel Not Active means under 50% inhibition at 10 µM.
Chain of Melanocortin receptor 5 (P33032 whole entry): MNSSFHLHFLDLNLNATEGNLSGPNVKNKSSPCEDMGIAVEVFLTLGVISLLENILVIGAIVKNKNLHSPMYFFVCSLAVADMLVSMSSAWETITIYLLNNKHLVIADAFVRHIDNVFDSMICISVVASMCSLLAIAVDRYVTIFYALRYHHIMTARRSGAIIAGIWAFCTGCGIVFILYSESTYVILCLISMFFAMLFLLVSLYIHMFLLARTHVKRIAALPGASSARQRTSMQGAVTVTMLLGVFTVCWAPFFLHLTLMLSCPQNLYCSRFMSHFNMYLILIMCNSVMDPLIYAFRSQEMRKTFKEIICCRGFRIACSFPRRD
Series [5] can be described thus: DRUGMATRIX: Interleukin IL-1 radioligand binding (ligand: [125I] interleukin 1beta). In kind it is cell membranes, Membrane. As to conditions: nih3t3; Not Active = under 50% inhibition at 10 µM.
The target of series [6] is T3, Nitric oxide synthase, inducible (Mus musculus, UniProt P29477).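 Further: inhibition of iNOS enzyme activity measured with L-arginine as substrate; in other assays of this panel Not Active means under 50% inhibition at 10 µM.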
T3 sequence (P29477 whole entry): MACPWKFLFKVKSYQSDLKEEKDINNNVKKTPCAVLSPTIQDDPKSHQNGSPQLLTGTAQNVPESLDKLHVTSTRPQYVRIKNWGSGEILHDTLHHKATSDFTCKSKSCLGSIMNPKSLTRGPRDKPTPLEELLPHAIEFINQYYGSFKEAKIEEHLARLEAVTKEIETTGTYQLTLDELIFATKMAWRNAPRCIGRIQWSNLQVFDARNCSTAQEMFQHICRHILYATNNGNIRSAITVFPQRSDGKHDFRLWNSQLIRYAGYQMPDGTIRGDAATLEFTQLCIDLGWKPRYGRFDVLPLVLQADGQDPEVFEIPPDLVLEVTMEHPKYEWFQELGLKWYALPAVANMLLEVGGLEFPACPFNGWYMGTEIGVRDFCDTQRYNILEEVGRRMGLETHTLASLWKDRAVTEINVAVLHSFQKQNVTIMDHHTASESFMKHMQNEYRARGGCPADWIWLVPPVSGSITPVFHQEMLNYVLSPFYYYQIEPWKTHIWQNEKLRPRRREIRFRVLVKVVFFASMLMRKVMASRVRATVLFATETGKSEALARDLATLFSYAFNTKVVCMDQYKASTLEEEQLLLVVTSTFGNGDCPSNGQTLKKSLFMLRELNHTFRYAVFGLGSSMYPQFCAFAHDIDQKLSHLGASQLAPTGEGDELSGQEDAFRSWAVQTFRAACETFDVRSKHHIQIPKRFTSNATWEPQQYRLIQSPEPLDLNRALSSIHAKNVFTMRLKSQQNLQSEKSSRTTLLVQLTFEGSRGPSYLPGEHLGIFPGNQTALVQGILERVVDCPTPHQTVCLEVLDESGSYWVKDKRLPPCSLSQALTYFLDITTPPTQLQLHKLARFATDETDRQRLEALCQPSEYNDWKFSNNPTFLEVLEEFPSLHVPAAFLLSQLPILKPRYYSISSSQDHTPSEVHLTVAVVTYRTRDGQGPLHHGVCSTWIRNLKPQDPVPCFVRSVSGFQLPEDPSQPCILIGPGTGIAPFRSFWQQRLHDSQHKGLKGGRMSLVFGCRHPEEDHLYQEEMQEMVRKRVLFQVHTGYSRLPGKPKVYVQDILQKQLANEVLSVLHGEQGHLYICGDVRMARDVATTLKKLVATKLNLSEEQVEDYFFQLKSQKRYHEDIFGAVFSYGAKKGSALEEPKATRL
Further details: species or system Escherichia coli.

The target in series [7] is Voltage-gated inwardly rectifying potassium channel KCNH2 (Homo sapiens, UniProt Q12809). The note with it: hek293. Further: in other assays of this panel Not Active means under 50% inhibition at 10 µM.
Chain of Voltage-gated inwardly rectifying potassium channel KCNH2 (Q12809 whole entry): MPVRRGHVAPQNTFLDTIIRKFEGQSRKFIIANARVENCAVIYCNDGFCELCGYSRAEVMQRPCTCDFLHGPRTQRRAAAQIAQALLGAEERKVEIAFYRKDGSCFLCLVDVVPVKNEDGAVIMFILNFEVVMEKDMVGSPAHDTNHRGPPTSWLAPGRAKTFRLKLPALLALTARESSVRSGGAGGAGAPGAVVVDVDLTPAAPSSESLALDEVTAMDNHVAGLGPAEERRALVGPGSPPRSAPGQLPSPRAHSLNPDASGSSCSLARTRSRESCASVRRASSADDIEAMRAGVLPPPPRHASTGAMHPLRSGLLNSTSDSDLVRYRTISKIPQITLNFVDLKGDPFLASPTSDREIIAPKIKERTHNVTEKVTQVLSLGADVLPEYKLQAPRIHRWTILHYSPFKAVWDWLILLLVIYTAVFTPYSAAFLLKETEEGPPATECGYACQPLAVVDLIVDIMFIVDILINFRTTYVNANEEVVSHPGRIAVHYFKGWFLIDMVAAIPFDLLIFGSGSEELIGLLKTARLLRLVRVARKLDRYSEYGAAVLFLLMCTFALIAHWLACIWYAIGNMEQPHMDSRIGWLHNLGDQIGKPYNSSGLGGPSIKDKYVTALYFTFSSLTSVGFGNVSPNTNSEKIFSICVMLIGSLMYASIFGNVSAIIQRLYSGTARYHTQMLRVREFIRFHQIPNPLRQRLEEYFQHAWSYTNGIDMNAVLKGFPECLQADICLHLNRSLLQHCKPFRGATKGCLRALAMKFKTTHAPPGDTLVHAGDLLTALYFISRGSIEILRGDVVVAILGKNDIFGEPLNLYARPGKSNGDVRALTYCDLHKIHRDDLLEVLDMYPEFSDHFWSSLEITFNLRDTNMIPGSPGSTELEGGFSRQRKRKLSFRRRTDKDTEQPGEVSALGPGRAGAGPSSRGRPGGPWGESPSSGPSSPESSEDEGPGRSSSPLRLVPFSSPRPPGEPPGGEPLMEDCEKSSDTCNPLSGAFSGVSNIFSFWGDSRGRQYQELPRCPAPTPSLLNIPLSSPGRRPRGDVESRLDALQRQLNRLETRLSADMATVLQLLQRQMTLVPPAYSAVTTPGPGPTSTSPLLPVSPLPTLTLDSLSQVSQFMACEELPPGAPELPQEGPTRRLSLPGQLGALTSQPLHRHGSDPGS
In series [8] the target is C-C chemokine receptor type 2 (Homo sapiens, UniProt P41597). It is filed as cell membranes, Membrane. As to conditions: cho-k1. Further: in other assays of this panel Not Active means under 50% inhibition at 10 µM.
Chain of C-C chemokine receptor type 2 (P41597 whole entry): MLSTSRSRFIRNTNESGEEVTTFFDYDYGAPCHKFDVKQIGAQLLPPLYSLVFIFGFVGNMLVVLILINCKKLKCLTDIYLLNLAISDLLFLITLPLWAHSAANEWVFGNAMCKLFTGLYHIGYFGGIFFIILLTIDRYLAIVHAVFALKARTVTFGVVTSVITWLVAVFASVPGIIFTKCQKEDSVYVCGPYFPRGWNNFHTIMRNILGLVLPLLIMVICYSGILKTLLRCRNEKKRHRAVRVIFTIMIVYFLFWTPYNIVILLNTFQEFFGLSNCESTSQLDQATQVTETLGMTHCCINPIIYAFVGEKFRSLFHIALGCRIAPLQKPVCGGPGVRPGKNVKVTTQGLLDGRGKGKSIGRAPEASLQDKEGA

Usually IC50 stands for the concentration that inhibits the measured activity by half. By Ki is commonly meant a dissociation constant, usually derived from enzyme kinetics or from competition with a known ligand. As to `COC1=C(OC)C(=O)C(CCCCCCCCCCO)=C(C)C1=O` [IDEBENONE], the IC50 result in series [1], in series [2], in series [3], in series [4] (hek293), in series [5] and in series [6] was “Not Active” in each case. For the same compound, the IC50 entry in series [7] and in series [8] was “Not Active” in each case. Further, the Ki result in series [3], in series [5] and in series [7] was “Not Active” in each case.
On to `CCC1(CCC(C)C)C(=O)NC(=O)NC1=O` [AMOBARBITAL], for which the IC50 result in series [1], in series [2], in series [3], in series [4] (hek293), in series [5] and in series [6] was “Not Active” throughout. In addition, the IC50 entry in series [7] and in series [8] was “Not Active” throughout. In addition, the Ki result in series [3], in series [5] and in series [7] was “Not Active” throughout.
On to `COc1ccc2[nH]cc(CCNC(C)=O)c2c1` [MELATONIN], for which the half-maximal inhibitory concentration (IC50) entry in series [1], in series [2], in series [3], in series [4] (hek293), in series [5] and in series [6] was “Not Active” throughout. Moreover, the IC50 entry in series [7] and in series [8] was “Not Active” throughout. The Ki entry in series [3], in series [5] and in series [7] was “Not Active” throughout.
`O=C/C=C/c1ccccc1`: the concentration for half-maximal inhibition (IC50) result in series [1], in series [2], in series [3], in series [4] (hek293), in series [5] and in series [6] was “Not Active” throughout. For the same compound, the IC50 entry in series [7] and in series [8] was “Not Active” throughout. Further, the Ki entry in series [3], in series [5] and in series [7] was “Not Active” in each case.
As for `CN(C)CC[C@@H](c1ccc(Cl)cc1)c1ccccn1` [DEXCHLORPHENIRAMINE], the IC50 result in series [1], in series [2], in series [3], in series [4] (hek293), in series [5] and in series [6] was “Not Active” in each case. The IC50 entry in series [7] and in series [8] was “Not Active” in each case. Besides, the Ki result in series [3], in series [5] and in series [7] was “Not Active” in each case.
Take `COc1ccc2cc3[n+](cc2c1OC)CCc1cc2c(cc1-3)OCO2.[Cl-]` [BERBERINE CHLORIDE]: the IC50 result in series [1], in series [2], in series [3], in series [4] (hek293), in series [5] and in series [6] was “Not Active” each time. The IC50 result in series [7] and in series [8] was “Not Active” throughout. In addition, the Ki entry in series [3], in series [5] and in series [7] was “Not Active” throughout.
For the compound `OC(CCCN1CCCCC1)(c1ccccc1)c1ccccc1` [DIPHENIDOL], the IC50 entry in series [1], in series [2], in series [3], in series [4] (hek293), in series [5] and in series [6] was “Not Active” throughout. Further, the half-inhibitory concentration (IC50) result in series [7] and in series [8] was “Not Active” throughout. Besides, the Ki entry in series [3], in series [5] and in series [7] was “Not Active” each time.
Turning to `CC(=O)O[C@H]1C(=O)[C@@]2(C)[C@H]([C@H](OC(=O)c3ccccc3)[C@]3(O)C[C@H](OC(=O)[C@H](O)[C@@H](NC(=O)c4ccccc4)c4ccccc4)C(C)=C1C3(C)C)[C@]1(OC(C)=O)CO[C@@H]1C[C@@H]2O` [PACLITAXEL], the IC50 result is “Not Active” in series [1]; “Not Active” in series [2]; “Not Active” in series [3]; 17.1 µM in series [4] (read-out: IC50); “Not Active” in series [5]; “Not Active” in series [6]. The IC50 entry in series [7] and in series [8] was “Not Active” throughout. In addition, the Ki entry is “Not Active” in series [3], 16.1 µM in series [4] (read-out: Ki), “Not Active” in series [5] and “Not Active” in series [7].
For the compound `Cn1c(=O)c2c(ncn2CC(O)CO)n(C)c1=O` (stereo not drawn) [DYPHYLLINE], the IC50 entry in series [1], in series [2], in series [3], in series [4] (hek293), in series [5] and in series [6] was “Not Active” in each case. Also, the IC50 entry in series [7] and in series [8] was “Not Active” throughout. For the same compound, the Ki result in series [3], in series [5] and in series [7] was “Not Active” throughout.
In the case of `CN(C)[C@@H]1C(O)=C(C(N)=O)C(=O)[C@@]2(O)C(O)=C3C(=O)c4c(O)ccc(Cl)c4[C@@](C)(O)[C@H]3C[C@@H]12` [CHLORTETRACYCLINE], the IC50 result in series [1], in series [2], in series [3], in series [4] (hek293), in series [5] and in series [6] was “Not Active” in each case. For the same compound, the IC50 result in series [7] and in series [8] was “Not Active” throughout. Besides, the Ki entry in series [3], in series [5] and in series [7] was “Not Active” throughout.
For `Cn1c(=O)c2[nH]cnc2n(C)c1=O.Cn1c(=O)c2[nH]cnc2n(C)c1=O.NCCN` [AMINOPHYLLINE], the IC50 entry in series [1], in series [2], in series [3], in series [4] (hek293), in series [5] and in series [6] was “Not Active” in each case. For the same compound, the IC50 entry in series [7] and in series [8] was “Not Active” each time. In addition, the Ki entry in series [3], in series [5] and in series [7] was “Not Active” in each case.
With `C[C@H]1O[C@@H](n2cc(F)c(=O)[nH]c2=O)[C@H](O)[C@@H]1O` [DOXIFLURIDINE], the IC50 result in series [1], in series [2], in series [3], in series [4] (hek293), in series [5] and in series [6] was “Not Active” throughout. Besides, the IC50 entry in series [7] and in series [8] was “Not Active” throughout. The Ki result in series [3], in series [5] and in series [7] was “Not Active” each time.

The values are drawn from ChEMBL document CHEMBL1909046, “DrugMatrix in vitro pharmacology data”.
